In paper PMC4366261, “Characterization of the Intestinal Absorption of Seven Flavonoids from the Flowers of Trollius chinensis Using the Caco-2 Cell Monolayer Model” (PLoS ONE, 2015):
In brackets after ≈: the same amount, converted by molar mass.

Experiments:
Caco-2 cell monolayer = experiment: Transport experiment across Caco-2 cell monolayer (Papp); assay type: in vitro ADME, human; settings: for Absorption mechanism: from P ratio, time course and concentration course; for P ratio Papp AP→BL/Papp BL→AP: 50 μmol/L, 90 min
Procedure: (§1) For cells differentiation to form a confluent monolayer, Caco-2 cells were seeded into the inserts of the 12-well Transwell plates at the density of 1.0×10^5 cells/cm^2. The culture medium was replaced on every other day in the first week, and then at daily intervals for the apical (AP) side and 2 days intervals for the basal (BL) side until the transport experiment was performed 21 days after seeding. The AP and BL sides contained 0.5 and 1.5 mL of culture medium, respectively. […] The cell inserts were considered as qualified only if the resistance reached above 600 Ω cm^2.
(§2) On day 21, the transport experiment was initiated by removal of the culture medium from AP and BL sides. The Caco-2 monolayers were rinsed twice with pre-warmed Hanks balanced salt solution (HBSS) and were incubated with the same solution at 37°C for 30 min. The seven individual test compounds and an equimolar mixture of them were pre-dissolved in DMSO, and then diluted to 25, 50, and 100 μmol/L with an appropriate volume of HBSS to allow the final concentration of DMSO to be less than 1%. The test compounds were added to the AP (0.5 mL) or BL side (1.5 mL), while the receiving chamber contained the corresponding volume of HBSS. Incubation was performed at 37°C for 180 min, with shaking at 50 rpm. At 30, 60, 90, 120, 150, and 180 min, each 0.2 mL of the solution from BL or AP side was collected, and replaced with an equal volume of HBSS. The samples were frozen immediately and stored below-20°C before analysis.
(§3) The apparent permeability coefficients (Papp) were determined in this study by HPLC quantification of the compounds in the receiver chamber after transport across the Caco-2 monolayer. The calculation was carried out in accordance with the formula Papp = (dQ/dt)×(1/A)×(1/C0), wherein dQ/dt was the rate of appearance of the test compound in the receiver compartment (μmol/s); C0 was the initial concentration of test compound in the donor compartment (μmol/mL); and A was the surface area of the Caco-2 monolayer (cm^2). The percentage transported (%) was calculated using the formula % transported = QB/(CS×VD)×100, wherein QB was the quantity of compound in the receiver compartment (μmol); CS was the concentration of test compound in the donor compartment (μmol/mL); VD was the liquid volume of the donor compartment (mL). The transport rate (μmol/h/cm^2) was calculated using the formula transport rate = QB/(t×A), wherein QB was the quantity of compound in the receiver compartment (μmol); t was the incubation time (h); A was the surface area of the Caco-2 monolayer (cm^2).

[1] = as above; assay type: in vitro ADME, human; settings: human
Procedure: as §1, §2, §3

[2] = Stability of sample solutions at room temperature by HPLC; assay type: physicochemical; settings: sample solution at room temperature, HPLC at 0, 1, 2, 4, 6, 12 and 24 h
Procedure: The intra-day precision was determined by investigating the analytes in sextuplicates during a single day, and the inter-day precision was determined by conducting the intra-day experiment on two consecutive days. […] Each one sample solution of the seven flavonoids was kept at room temperature, and then their stabilities were determined by injecting them into apparatus at 0, 1, 2, 4, 6, 12, and 24 h.

Caco-2 cells = experiment: MTT assay, survival rate of Caco-2 cells; assay type: cell-based, human; settings: 4 h
From the text: The human colon adenocarcinoma cell line Caco-2 (No. 3111C0001CCC000100, passage 32) was obtained from the Cell Resource Center, Peking Union Medical College (the headquarters of National Infrastructure of Cell Line Resource, NSTI) on May 3rd, 2013. The cell line was checked free of mycoplasma contamination by PCR and culture, its species origin was confirmed with PCR, and its identity was authenticated with STR profiling (FBI, CODIS). All results of the above tests can be viewed on the website (http://cellresource.cn). The cells were cultured in 25 cm^2 flasks in DMEM medium supplemented with 10% (v/v) FBS, 1% (v/v) NEAA, and 1% (v/v) penicillin-streptomycin, in an atmosphere of 5% CO2 at 37°C and constant moisture. The culture medium was replaced every 2 to 3 days, and the cells were split 1:2 or 1:3 as 80% confluence was obtained.
Caco-2 cells at logarithmic growth phase were seeded into 96-well plates and incubated at 37°C in an atmosphere of 5% CO2 and constant moisture in the incubator. After the cells reached confluence, they were cultured in quadruplicate with 100 μL of HBSS solution (negative control) and compound-containing HBSS solution (seven flavonoids or paclitaxel (positive control) at the concentrations of 25, 50, and 100 μmol/L, respectively) for 4 h. Then, HBSS solution was replaced by 100 μL of MTT solution (0.5 mg/mL), and the supernatant was discarded after 4 h of incubation at 37°C. The cells were shaken with 150 μL of DMSO for 10 min, and the absorbance was read on the microplate reader at 570 nm. The survival rate %=A¯/A0¯×100 , wherein A¯ was the average absorbance value of treatment or positive control group, and A0¯ was the average absorbance value of negative control group.

P-glycoprotein (P-gp) = target: T1, P-glycoprotein (P-gp) (Homo sapiens, UniProt P08183); experiment: Transporter inhibition experiment with verapamil hydrochloride (P-gp) in Caco-2 monolayer; assay type: in vitro ADME; settings: 50 μmol/L compound, 100 μmol/L verapamil hydrochloride, AP to BL; for Effect of verapamil hydrochloride on the transport: 180 min
T1 construct: endogenous in cells; host or cells: Caco-2 cells
T1 sequence (P08183 whole entry): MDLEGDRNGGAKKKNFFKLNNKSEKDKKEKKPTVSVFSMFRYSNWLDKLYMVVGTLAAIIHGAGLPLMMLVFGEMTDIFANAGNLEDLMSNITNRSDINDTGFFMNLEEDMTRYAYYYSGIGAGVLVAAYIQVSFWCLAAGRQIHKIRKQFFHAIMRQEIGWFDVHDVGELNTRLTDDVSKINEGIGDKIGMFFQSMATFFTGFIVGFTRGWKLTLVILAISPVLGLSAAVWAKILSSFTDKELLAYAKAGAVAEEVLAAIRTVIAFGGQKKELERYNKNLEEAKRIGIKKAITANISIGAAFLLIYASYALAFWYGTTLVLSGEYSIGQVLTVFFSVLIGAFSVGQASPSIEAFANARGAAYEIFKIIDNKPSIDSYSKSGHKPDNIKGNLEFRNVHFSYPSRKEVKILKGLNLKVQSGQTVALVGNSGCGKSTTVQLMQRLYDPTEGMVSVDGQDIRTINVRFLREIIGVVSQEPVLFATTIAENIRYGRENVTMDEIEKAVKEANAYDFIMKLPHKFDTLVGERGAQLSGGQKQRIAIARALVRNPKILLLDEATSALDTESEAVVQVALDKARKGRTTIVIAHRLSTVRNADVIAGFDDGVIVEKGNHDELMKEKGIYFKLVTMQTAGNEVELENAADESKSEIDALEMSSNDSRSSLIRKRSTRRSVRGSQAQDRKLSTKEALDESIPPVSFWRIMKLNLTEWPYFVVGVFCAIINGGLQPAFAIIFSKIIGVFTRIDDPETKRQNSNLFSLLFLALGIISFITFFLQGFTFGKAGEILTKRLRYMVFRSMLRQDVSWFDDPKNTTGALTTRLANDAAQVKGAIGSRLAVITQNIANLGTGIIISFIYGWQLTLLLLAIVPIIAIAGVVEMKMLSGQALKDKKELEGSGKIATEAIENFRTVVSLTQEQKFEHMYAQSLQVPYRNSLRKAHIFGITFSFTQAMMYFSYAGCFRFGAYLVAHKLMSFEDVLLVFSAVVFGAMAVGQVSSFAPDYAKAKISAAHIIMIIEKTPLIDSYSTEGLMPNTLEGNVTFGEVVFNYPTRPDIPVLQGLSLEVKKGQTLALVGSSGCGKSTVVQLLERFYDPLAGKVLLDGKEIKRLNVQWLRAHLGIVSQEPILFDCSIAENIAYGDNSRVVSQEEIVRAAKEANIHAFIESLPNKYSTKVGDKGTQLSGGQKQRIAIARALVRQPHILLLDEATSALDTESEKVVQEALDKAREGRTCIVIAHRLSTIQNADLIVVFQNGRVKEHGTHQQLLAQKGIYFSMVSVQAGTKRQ
Procedure: On day 21, transport study was initiated by carefully removing the culture medium from both AP and BL sides. The Caco-2 monolayers were rinsed twice with pre-warmed HBSS and were incubated with the same solution at 37°C for 30 min. […] The final concentration of DMSO in these solutions was less than 1%. […] Incubation was performed at 37°C for 180 min, with shaking at 50 rpm. […] The samples were frozen immediately and stored below-20°C before analysis.

murine ear edema model = settings: cited from earlier work
Staphylococcus aureus = tested on: Staphylococcus aureus; parameters: method as in earlier work; settings: cited from earlier work
[3] = tested on: parainfluenza virus type 3 (Para 3); parameters: method as in PMID 11849843; settings: cited from earlier work
S. epidermidis = tested on: S. epidermidis; parameters: method as in earlier work; settings: cited from earlier work
[4] = Caco-2, in the equimolar mixture of the seven flavonoids
[5] = in the equimolar mixture of the seven flavonoids

SMILES | Absorption mechanism (Caco-2 cell monolayer) | Papp A→B at 90 min, 50 μmol/L [1, 4] [×10⁻⁶ cm/s] | Papp B→A at 90 min, 50 μmol/L [1, 4] [×10⁻⁶ cm/s] | Papp A→B at 90 min, 50 μmol/L ([1]; Caco-2, individual compound) [×10⁻⁶ cm/s] | Papp B→A at 90 min, 50 μmol/L ([1]; Caco-2, individual compound) [×10⁻⁶ cm/s] | RSD% values for 24-hour stability [2] [%] | Survival rates (%) (Caco-2 cells; 25 μmol/L) | Survival rates (%) (Caco-2 cells; 50 μmol/L) | Survival rates (%) (Caco-2 cells; 100 μmol/L) | P ratio Papp AP→BL/Papp BL→AP (Caco-2 cell monolayer; [5]) | P ratio Papp AP→BL/Papp BL→AP (Caco-2 cell monolayer; individual compound) | other results
O=c1cc(-c2ccc(O)cc2)oc2c([C@@H]3O[C@H](CO)[C@@H](O)[C@H](O)[C@H]3O[C@@H]3O[C@H](CO)[C@H](O)[C@H](O)[C@H]3O)c(O)cc(O)c12 [2”-O-β-L-galactopyranosylvitexin, 8-((2S,3R,4S,5S,6R)-4,5-dihydroxy-6-(hydroxymethyl)-3-(((2S,3R,4S,5R,6R)-3,4,5-trihydroxy-6-(hydroxymethyl)tetrahydro-2H-pyran-2-yl)oxy)tetrahydro-2H-pyran-2-yl)-5,7-dihydroxy-2-(4-hydroxyphenyl)-4H-chromen-4-one] | transporter mediated efflux in addition to passive diffusion | 1.92 ± 0.42 | 0.81 ± 0.27 | 1.85 ± 0.02 | 4.68 ± 0.02 | 2.65 |  |  |  |  |  | 
COc1cc(O)c2c(=O)cc(-c3ccc(O)c(O)c3)oc2c1[C@@H]1O[C@H](CO)[C@@H](O)[C@H](O)[C@H]1O [Isoswertiajaponin, 2-(3,4-dihydroxyphenyl)-5-hydroxy-7-methoxy-8-((2S,3R,4R,5S,6R)-3,4,5-trihydroxy-6-(hydroxymethyl)tetrahydro-2H-pyran-2-yl)-4H-chromen-4-one] | passive diffusion without participation of transporter | 1.44 ± 0.47 | 0.54 ± 0.31 | 0.98 ± 0.03 | 1.19 ± 0.07 | 2.95 | 116.7±8.9 | 124.6±5.4 | 109.1±12.6 | 2.66 | 0.83 | P ratio Papp AP→BL/Papp BL→AP (Caco-2 cell monolayer; individual compound, listed as isoswertiajaponin): ~1
COc1cc(O)c2c(=O)cc(-c3ccc(O)cc3)oc2c1[C@@H]1O[C@H](CO)[C@@H](O)[C@H](O)[C@H]1O [Isoswertisin, 5-hydroxy-2-(4-hydroxyphenyl)-7-methoxy-8-((2S,3R,4R,5S,6R)-3,4,5-trihydroxy-6-(hydroxymethyl)tetrahydro-2H-pyran-2-yl)-4H-chromen-4-one] | passive diffusion without participation of transporter | 2.69 ± 0.37 | 1.59 ± 0.2 | 1.07 ± 0.08 | 0.94 ± 0.18 | 2.82 | 110.8±9.9 | 115.3±5.5 | 116.0±8.6 | 1.69 | 1.14 | P ratio Papp AP→BL/Papp BL→AP (Caco-2 cell monolayer; individual compound, listed as isoswertisin): ~1
O=c1cc(-c2ccc(O)c(O)c2)oc2c([C@@H]3O[C@H](CO)[C@@H](O)[C@H](O)[C@H]3O)c(O)cc(O)c12 [Orientin, 2-(3,4-dihydroxyphenyl)-5,7-dihydroxy-8-((2S,3R,4R,5S,6R)-3,4,5-trihydroxy-6-(hydroxymethyl)tetrahydro-2H-pyran-2-yl)-4H-chromen-4-one] | transporter mediated efflux in addition to passive diffusion | 1.14 ± 0.27 | 0.88 ± 0.31 | 0.75 ± 0.05 | 1.14 ± 0.08 | 2.35 | 100.4±1.3 | 114.3±7.5 | 111.5±2.4 | 1.29 | 0.66 | Substrate of P-gp (P-glycoprotein (P-gp)): substrates of P-gp; Effect of verapamil hydrochloride on the transport (P-glycoprotein (P-gp)): increased; Anti-inflammatory effect against murine ear edema (murine ear edema model): possess anti-inflammatory effects; MIC toward S. aureus (Staphylococcus aureus): 25 µg/mL (≈ 55.8 µM); IC50 against parainfluenza virus type 3 [3]: 11.7 µg/mL (≈ 26.1 µM); MIC toward S. epidermidis (S. epidermidis): 25 µg/mL (≈ 55.8 µM)
CC(=O)O[C@H]1C(=O)[C@@]2(C)[C@H]([C@H](OC(=O)c3ccccc3)[C@]3(O)C[C@H](OC(=O)[C@H](O)[C@@H](NC(=O)c4ccccc4)c4ccccc4)C(C)=C1C3(C)C)[C@]1(OC(C)=O)CO[C@@H]1C[C@@H]2O [Paclitaxel, reference compound] |  |  |  |  |  |  | 67.3±8.2 | 45.5±6.7 | 37.4±3.5 |  |  | Survival rates (%) (Caco-2 cells; 25 μmol/L, listed as paclitaxel): 67.3%; Survival rates (%) (Caco-2 cells; 50 μmol/L, listed as paclitaxel): 45.5%; Survival rates (%) (Caco-2 cells; 100 μmol/L, listed as paclitaxel): 37.4%
O=c1cc(-c2ccc(O)cc2)oc2c([C@@H]3O[C@H](CO)[C@@H](O)[C@H](O)[C@H]3O)c(O)cc(O)c12 [Vitexin, 5,7-dihydroxy-2-(4-hydroxyphenyl)-8-((2S,3R,4R,5S,6R)-3,4,5-trihydroxy-6-(hydroxymethyl)tetrahydro-2H-pyran-2-yl)-4H-chromen-4-one] | transporter mediated efflux in addition to passive diffusion | 1.6 ± 0.18 | 1.03 ± 0.28 | 2.26 ± 0.37 | 3.38 ± 0.54 | 2.42 | 104.5±10.5 | 101.3±2.3 | 98.2±8.9 | 1.55 | 0.67 | Substrate of P-gp (P-glycoprotein (P-gp)): substrates of P-gp; Effect of verapamil hydrochloride on the transport (P-glycoprotein (P-gp)): increased; Anti-inflammatory effect against murine ear edema (murine ear edema model): possess anti-inflammatory effects; MIC toward S. aureus (Staphylococcus aureus): 100 µg/mL (≈ 231 µM); IC50 against parainfluenza virus type 3 [3]: 20.8 µg/mL (≈ 48.1 µM); MIC toward S. epidermidis (S. epidermidis): 25 µg/mL (≈ 57.8 µM)
CC(C)NCC(O)COc1cccc2ccccc12 (centres unmarked) [propranolol, reference compound] |  |  |  |  |  |  |  |  |  |  |  | Papp ([1]; Caco-2, standard compounds, validation of the monolayer model): 14.4 ×10⁻⁶ cm/s
